According to patent US9381349B2, “Apparatus for treating cerebral neurovascular disorders including headaches by neural stimulation” (priority 1997, dated 2016):

Assays:
[1] = test system: recurring migraine; assay: Dorsonasal ropivacaine therapy in recurring migraine: frequency and severity of subsequent episodes (Example 3); type: in vivo, human
Excerpt: The following studies relate to the methods of decreasing the frequency and severity of CNvD episodes described herein, and involved three patients.
A patient, herein designated “patient 3-1” was afflicted with recurring severe migraine, wherein acute migraine episodes were associated with nausea and visual changes. Patient 3-1 generally rated the severity of head pain associated with acute migraine episodes in the range from five to eight using the pain scale described herein. Patient 3-1 experienced, on average, about one acute migraine episode per week prior to beginning dorsonasal ropivacaine therapy. In addition, patient 3-1 also usually experienced about one severe acute migraine episode per month, associated with menses, wherein the severity of head pain was from eight to ten using the pain scale described herein.
Ropivacaine was dorsonasally administered to patient 3-1 using the cotton swab technique described herein. The patient has consistently experienced relief from all of the symptoms of their CNvD episodes within 3 to 5 minutes following administration of ropivacaine, regardless of whether the episodes are associated with menses.
A person, herein designated, “patient 3-2,” was afflicted with recurring migraines. […] Head pain associated with the patient's acute migraine episodes is typically preceded by visual changes which they describe as a curtain-like wave of scotomata moving from left to right until they are unable to see. The patient then becomes disoriented with respect to time and place and must sit or lay down. Following these prodromal symptoms, a severe headache, rated 10 on the pain scale described herein, begins and typically endures for 45 to 60 minutes. The patient remains completely debilitated for the duration of the headache, unable to move about or walk. As the headache subsides, the patient's vision returns, and the patient is left feeling exhausted, as if they had not slept the night before.
A person, herein designated, “patient 3-3,” experienced about 3 to 5 recurring migraine episodes per week prior to beginning dorsonasal ropivacaine therapy. The initial severity of these headaches was reported to be 10, using the pain scale described herein. When ropivacaine was administered, using the saturated swab method described herein, to patient 3-3 during a headache episode, the patient reported a decrease in head pain from a rating of 10 to a rating of 0 or 1 within 10 minutes following ropivacaine administration. Furthermore, after three months of dorsonasal ropivacaine treatment, patient 3-3 reported that the frequency of their headache episodes had decreased to about 1 to 2 times weekly and that the initial severity of their headaches was in the range from about 7 to about 8, rather than 10.

[2] = test system: tinnitus; assay: Inhibition of tinnitus by dorsonasal administration of ropivacaine (Example 4); type: in vivo, human
Excerpt: Ropivacaine was dorsonasally administered to each of three patients using the nasal spray method or the nasal drops method described herein.

[3] = test system: nerve structure; conditions: in vivo; cited from earlier work
[4] = patient 3-1, about three or four months after initiation
[5] = patient 4-3, 1 milliliter 0.75% (w/v) per nostril, nasal drop

Compound: CCCN1CCCC[C@H]1C(=O)Nc1c(C)cccc1C [Ropivacaine, ropivacaine]
- Frequency of subsequent acute migraine episodes [1, 4]: decrease in the frequency with which acute migraine episodes not associated with menses occurred
- Initial severity of subsequent acute migraine episodes [1, 4]: decrease in the initial severity of acute migraine episodes not associated with menses
- Frequency of headaches after therapy ([1]; patient 3-2, after four to six months of therapy): approximately one headache every two months or longer
- Initial headache pain (prior to administration) after therapy ([1]; patient 3-2, after four to six months of therapy, previously about 10): ≤ 2
- Time to complete resolution of headache ([1]; patient 3-2, nasal spray): completely resolved by fifteen minutes
- Headache pain intensity after administration ([1]; patient 3-2, nasal spray, from 10, within one to two minutes, pain scale 0-10): 2-3
- Time to relief of head pain and tinnitus symptoms ([2]; patient 4-1, dorsonasal spray): within about five minutes
- Decrease in head pain ([2]; patient 4-2, dorsonasal spray, non-neurovascular chronic head pain): about 2 points
- Reduction in tinnitus symptoms, right ear [2, 5]: 50-75%
- Tinnitus symptoms, left ear [2, 5]: complete relief
- Inhibition of tinnitus, patients ([2]; three patients, nasal spray or nasal drops): All three patients experienced inhibition of tinnitus
- Anesthetic effect of 0.75% (w/v) ropivacaine-HCl relative to lidocaine [3]: approximately equivalent to that of 3% (w/v) lidocaine
